Data as given in article PMC5906549, “Cathelicidin-Derived Antimicrobial Peptides Inhibit Zika Virus Through Direct Inactivation and Interferon Pathway” (Frontiers in Immunology, 2018).
Peptide text beside a SMILES is read from it.

How the values were obtained:
in vitro = details: African green monkey
Procedure: (§1) Cell viability was examined by the CellTiter 96 ®Aqueous One Solution Cell Proliferation Assay (Promega, Madison, WI, USA). Vero cells and astrocytes were seeded into 96-well tissue culture plates (Fisher Scientific) and treated with fresh growth medium containing different concentrations of each peptide for 2 or 4 days at 37°C. At the experimental end point, MTS [3-(4,5-dimethylthiazol-2-yl)-5-(3-carboxymethoxyphenyl)-2-(4-sulfophenyl)-2H-tetrazolium] was added to the cultures and incubated for 1 h. The absorbance at 490 nm was recorded through BioTek Gen5 data analysis software (Winooski), VT, optical density (OD) values were used as a representation of cell viability.
(§2) (A) Vero cells were treated with doses of peptides ranging from 1 to 50 µM. After 24 h, the cultures were washed and treated with same doses of peptides in fresh medium for another 24 h. Cell viability was determined by a colorimetric MTS assay. Results shown are the averages ±SD of experiments performed in triplicate. Data were analyzed by non-linear regression. The EC50 was assessed for each of the antimicrobial peptides. (B) Vero cells were treated with doses of peptides ranging from 0.4 to 10 µM for 2 h then infected with ZIKV at the MOI of 0.5. After 24 h, the cultures were washed and treated with same doses of peptides in fresh medium for another 24 h. ZIKA RNA was detected in total cellular RNA through real-time RT-PCR. Data were normalized to GAPDH and presented as fold change (in log scale) compared with ZIKV group. ** p < 0.01 and *** p < 0.001, as compared with the ZIKV group without the peptide treatment (ANOVA, N = 3).
(§3) A, B) Vero cells were treated with 10 µM AMPs for 2 days or 4 days as outlined in the figure. For 4-day treatment, Vero cells were repeatedly treated with 10 µM AMPs at 2-day post-treatment. At the experimental end point, cell viability was determined by a colorimetric MTS assay CellTiter 96® AQueous One Solution Assay (Promega, Madison, WI) based on the manufacture’s instruction. Results were normalized as percentage of cell viability in control astrocytes. CTL, control. * denotes p < 0.05, ** denotes p < 0.01, *** denotes p < 0.001 as compared to the control group without peptide treatment (ANOVA, N = 3).

Vero cells = assay: in vitro
Procedure: as §1, §2, §3

ZIKV strain MR766 [1] = assay: Viral attachment assay at 4°C in human fetal astrocytes; type: cell-based, Zika virus; details: astrocytes pre-incubated at 4°C half an hour, peptide along with ZIKV MOI 0.5 for 2 h at 4°C; normalized to 18-s rRNA; N = 3
Procedure: Viral attachment assay was adapted from a previous publication ([36]) with modifications. Briefly, primary human fetal astrocytes were pre-incubated at 4°C for half an hour and then treated with AMPs along with ZIKV infection at the MOI of 0.5. After infection at 4°C for 2 h, cultures were washed with fresh medium for three times and RNA was isolated from whole cells. ZIKV RNA was determined through real-time RT-PCR. Data were normalized to 18-s rRNA and presented as fold change compared with the ZIKV group. One experimental group was subjected to trypsin digestion to remove any attached virions. This group served as a positive control for the viral attachment experiment.
(A) Primary human fetal astrocytes were pre-incubated at 4°C for half an hour and then treated with antimicrobial peptides along with ZIKV infection at the MOI of 0.5 for 2 h. Cultures were then washed with fresh medium for three times. […] Data were normalized to 18-s rRNA and presented as fold change compared with the ZIKV group. The trypsin digestion group readily removes any attached virions and thus serves as positive control. […] After infection for 2 h, cultures were washed with fresh medium for three times and RNA was isolated from whole cells. ZIKV RNA was determined through real-time RT-PCR.

ZIKV strain MR766 [2] = assay: ZIKV RNA at 2-h post-infection in pre-treated human fetal astrocytes (early infection / entry); type: cell-based, Zika virus; details: astrocytes treated with AMPs 2 h at 37°C, then ZIKV MOI 0.5 for 2 h; normalized to 18-s rRNA; N = 3
Procedure: Total mRNA was isolated with TRIzol Reagent (Thermo Fisher Scientific) and RNeasy Mini Kit (QIAGEN Inc., Valencia, CA, USA) following the manufacturer’s recommendations. Two real-time RT-PCR methods were used for the current studies. First, SYBR Green-based RT-PCR assay was used to determine intracellular ZIKV RNA in Vero cells. For this assay, reverse transcription was performed using Verso cDNA synthesis Kit (Thermo Fisher Scientific) and 1 µg of total RNA in a 15-µL final volume. The RT-PCR analyses were performed using 7.5-µL SYBR Green PCR Master Mix (Thermo Fisher Scientific) with 0.5-µL cDNA, 1.5-µL H2O, 5.5-µL oligonucleotide primer pairs at 10 µM. […] Relative ZIKV RNA levels were determined and standardized with a GAPDH internal control using comparative ΔΔCT method ([35]). […] Relative ZIKV mRNA levels were determined and standardized with a GAPDH or 18-s rRNA endogenous control using comparative ΔΔCT method ([35]). All reference genes, including GAPDH, β-actin, and 18-s rRNA, detected identical changes of genes (Figure S1 in Supplementary Material). […] Quantitative genomic RNA from ZIKV (NR-1838DQ, ATCC) was used as a standard to calculate viral copies. […]
(A) Primary human fetal astrocytes were pre-incubated at 4°C for half an hour and then treated with antimicrobial peptides along with ZIKV infection at the MOI of 0.5 for 2 h. […] ZIKV RNA was determined through real-time RT-PCR.

Structure (SMILES) | EC50 at 48 h (in vitro) | Cytotoxicity to Vero cells at 10 µM (Vero cells) | ZIKV RNA levels in astrocytes at 4°C (viral attachment) (ZIKV strain MR766 [1]) | ZIKV RNA at 2-h post-infection compared with untreated ZIKV group (ZIKV strain MR766 [2])
CC[C@H](C)[C@H](NC(=O)[C@H](CCCCN)NC(=O)[C@H](CCCCN)NC(=O)[C@H](Cc1ccccc1)NC(=O)[C@H](CC(C)C)NC(=O)[C@H](CCCCN)NC(=O)[C@H](CCCCN)NC(=O)[C@H](Cc1ccccc1)NC(=O)[C@H](CCCCN)NC(=O)[C@H](CCCCN)NC(=O)[C@H](CCCNC(=N)N)NC(=O)[C@H](Cc1ccccc1)NC(=O)[C@H](CCCNC(=N)N)NC(=O)[C@H](CCCCN)NC(=O)[C@H](Cc1ccccc1)NC(=O)[C@H](CCCNC(=N)N)NC(=O)CN)C(=O)N[C@@H](CO)C(=O)O [BMAP-18] (H-GRFKRFRKKFKKLFKKIS-OH; N-terminus and C-terminus assumed) | > 50 µM | minimal cytotoxicity | did not alter the ZIKV RNA levels | significantly decreased ZIKV RNA
CC[C@H](C)[C@H](NC(=O)[C@H](CCCNC(=N)N)NC(=O)[C@H](CCC(N)=O)NC(=O)[C@@H](NC(=O)[C@@H](NC(=O)[C@H](CCCNC(=N)N)NC(=O)[C@H](CCCCN)NC(=O)[C@H](Cc1ccccc1)NC(=O)CN)[C@@H](C)CC)C(C)C)C(=O)N[C@@H](CCCCN)C(=O)N[C@@H](CC(=O)O)C(=O)N[C@@H](Cc1ccccc1)C(=O)N[C@@H](CC(C)C)C(=O)N[C@@H](CCCNC(=N)N)C(=O)N[C@@H](CC(N)=O)C(=O)N[C@@H](CC(C)C)C(=O)N[C@H](C(N)=O)C(C)C [GF-17] (H-GFKRIVQRIKDFLRNLV-NH2; N-terminus and C-terminus assumed) | > 50 µM | minimal cytotoxicity | did not alter the ZIKV RNA levels | significantly decreased ZIKV RNA
CC[C@H](C)[C@H](NC(=O)[C@H](CCCNC(=N)N)NC(=O)[C@H](CCC(N)=O)NC(=O)[C@@H](NC(=O)[C@@H](NC(=O)[C@@H](N)CCCNC(=N)N)[C@@H](C)CC)C(C)C)C(=O)N[C@@H](CCCCN)C(=O)N[C@@H](CC(=O)O)C(=O)N[C@@H](Cc1ccccc1)C(=O)N[C@@H](CC(C)C)C(=O)O [RI-10, reference compound] (H-RIVQRIKDFL-OH; N-terminus and C-terminus assumed) | > 50 µM | minimal cytotoxicity | did not alter the ZIKV RNA levels | –
